Assay results reported in patent US20220040180A1, “KITS AND METHODS FOR TREATING CANCERS” (Spectrum Pharmaceuticals, Inc., priority 2018, published 2022).
Values belong to the compound of their own block, whether it stands above or below them.

Key:
Format in all cases: physicochemical
[1] = Dynamic vapor sorption (DVS) hygroscopicity
Experimental: Dynamic Vapor Sorption (DVS) analysis was conducted on the DVS advantage (Surface measurement system, United Kingdom) analyzer at 25° C. and relative humidity of 0-90%.
10 mg of sample was placed in the wire mesh steam sorption balance pan and attached to the DVS-advantage dynamic vapor adsorption balance by the Surface Measurement Systems. […] After the completion of the sorption cycle, the sample was dried using the same procedure, during which the relative humidity was returned to a relative humidity […] all the time. The change in weight during the sorption/desorption cycle (repetition of 3 times) was recorded to determine the hygroscopicity of the sample.

[2] = Behaviour under long-term, accelerated and harsh storage conditions (moisture absorption, stability of form)
[3] = Test Example 1: comparative solubility of amorphous and crystalline hydrochloride salt forms (HPLC); conditions: 25° C., loading of 1.0 mg/mL; for Solubility, Water: LOD 0.1 μg/mL
Experimental: To compare the solubility of amorphous hydrochloride salt form and crystalline hydrochloride salt polymorphs, each of the polymorphs and amorphous form of the hydrochloride salt of the compound of chemical formula (1) prepared in Examples 4 to 6 was used to prepare samples under the following conditions according to non-ionized water and acidity (pH). Thereafter, each solution was analyzed by high performance liquid chromatography (HPLC) according to the measurement conditions of the content of the compound of chemical formula (1) to measure the dissolved amount (LOD: 0.1 μg/mL) based on the compound of chemical formula (1).
Specifically, 5 mg of each polymorph was added to 5 ml of water and mixed using a Voltamixer at 20-25° C. Thereafter, the filtrate obtained by filtrating using GH Polypro membrane Acrodisc, PALL (pore size 0.2 μm) was diluted with a dilution solvent for high performance liquid chromatography (HPLC) at a ratio of 1/100, to obtain the samples.

[4] = Test Example 2: comparative storage stability of hydrochloride salt forms, purity by HPLC
Experimental: High performance liquid chromatography (HPLC) was conducted on the Agilent 1100/1200 series HPLC Systems (Agilent, USA) analyzer for the purpose of purity and content analysis including stability test and the like. The analysis conditions of the HPLC are as follows.
To compare the stability of amorphous hydrochloride salt form and crystalline hydrochloride salt polymorphs, each of samples of the polymorphs and amorphous form of the hydrochloride salt of the compound of chemical formula (1) prepared in Examples 4 to 6 was left for 4 weeks under long term conditions (e.g., temperature of 25±2° C. and relative humidity of 60±5%) and accelerated conditions (e.g., temperature of 40° C. and relative humidity of 75%). Each sample was analyzed by high performance liquid chromatography (HPLC) according to the purity measurement conditions of the compound of chemical formula (1).

[5] = Solubility in water of the compound of chemical formula (1); conditions: amorphous free base
[6] = relative humidity range of 10-90%, 25° C.
[7] = 25 ± 2° C., 60 ± 5% RH, listed as HCl cryst. hydrate
[8] = 40 ± 2° C., 75 ± 5% RH, listed as HCl cryst. hydrate
[9] = 25 ± 2° C., 60 ± 5% RH, listed as HCl cryst. anhydrate
[10] = 40 ± 2° C., 75 ± 5% RH, listed as HCl cryst. anhydrate

hygroscopic degree (DVS) ([1]; relative humidity range of 0-90%, listed as crystalline anhydrous Form II): very low | hygroscopic degree (DVS) [1, 6]: about 0.7% | stability of the crystalline form on storage ([2]; long-term (25° C., 60% RH), accelerated (40° C., 75% RH) and harsh (60° C.) conditions): sufficiently stable
SMILES: C=CC(=O)N1CCC(Oc2cc3c(Nc4ccc(Cl)c(Cl)c4F)ncnc3cc2OC)CC1 [Example 3, 1-(4-(4-(3,4-dichloro-2-fluorophenylamino)-7-methoxyquinazolin-6-yloxy)piperidin-1-yl)prop-2-en-1-one]

Solubility, pH 1.2 ([3]; listed as HCl cryst. hydrate): 5 μg/mL | Solubility, pH 2.0 ([3]; listed as HCl cryst. hydrate): 7 μg/mL | Solubility, pH 4.0 ([3]; listed as HCl cryst. hydrate): 48 μg/mL | Solubility, Water ([3]; listed as HCl cryst. hydrate): <LOD | Purity (HPLC, %) 3 days [4, 7]: 99.2% | Purity (HPLC, %) Start [4, 7]: 99.2% | Purity (HPLC, %) Week 1 [4, 7]: 99.2% | Purity (HPLC, %) Week 2 [4, 7]: 99.1% | Purity (HPLC, %) Week 4 [4, 7]: 99.2% | Purity (HPLC, %) 3 days [4, 8]: 99.3% | Purity (HPLC, %) Start [4, 8]: 99.2% | Purity (HPLC, %) Week 1 [4, 8]: 99.2% | Purity (HPLC, %) Week 2 [4, 8]: 99.1% | Purity (HPLC, %) Week 4 [4, 8]: 99.2% | hygroscopic degree (DVS) [1, 6]: about 0.4% | hygroscopic degree (DVS) ([1]; relative humidity range of 10-90%, 25° C., listed as crystalline monohydrochloride monohydrate (1HCl.1H2O) form): very low
SMILES: C=CC(=O)N1CCC(Oc2cc3c(Nc4ccc(Cl)c(Cl)c4F)ncnc3cc2OC)CC1 [Example 4, 1-(4-(4-(3,4-dichloro-2-fluorophenylamino)-7-methoxyquinazolin-6-yloxy)piperidin-1-yl)prop-2-en-1-one]

Solubility, pH 1.2 ([3]; listed as HCl cryst. anhydrate): 92 μg/mL | Solubility, pH 2.0 ([3]; listed as HCl cryst. anhydrate): 140 μg/mL | Solubility, pH 4.0 ([3]; listed as HCl cryst. anhydrate): 74 μg/mL | Solubility, Water ([3]; listed as HCl cryst. anhydrate): 0.02 mg/mL | Purity (HPLC, %) 3 days [4, 9]: 99.4% | Purity (HPLC, %) Start [4, 9]: 99.4% | Purity (HPLC, %) Week 1 [4, 9]: 99.4% | Purity (HPLC, %) Week 2 [4, 9]: 99.5% | Purity (HPLC, %) Week 4 [4, 9]: 99.5% | Purity (HPLC, %) 3 days [4, 10]: 99.4% | Purity (HPLC, %) Start [4, 10]: 99.4% | Purity (HPLC, %) Week 1 [4, 10]: 99.4% | Purity (HPLC, %) Week 2 [4, 10]: 99.5% | Purity (HPLC, %) Week 4 [4, 10]: 99.5% | hygroscopic degree (DVS) [1, 6]: about 0.35% | hygroscopic degree (DVS) ([1]; relative humidity range of 10-90%, 25° C., listed as crystalline anhydrous monohydrochloride (1HCl) form): very low | moisture absorption on storage ([2]; 25° C., 60% relative humidity and 40° C., 75% relative humidity): did not absorb moisture
SMILES: C=CC(=O)N1CCC(Oc2cc3c(Nc4ccc(Cl)c(Cl)c4F)ncnc3cc2OC)CC1 [Example 5, 1-(4-(4-(3,4-dichloro-2-fluorophenylamino)-7-methoxyquinazolin-6-yloxy)piperidin-1-yl)prop-2-en-1-one]

Solubility, pH 1.2 ([3]; listed as HCl amorphous): 274 μg/mL | Solubility, pH 2.0 ([3]; listed as HCl amorphous): 213 μg/mL | Solubility, pH 4.0 ([3]; listed as HCl amorphous): 34 μg/mL | Solubility, Water ([3]; listed as HCl amorphous): 0.053 mg/mL
SMILES: C=CC(=O)N1CCC(Oc2cc3c(Nc4ccc(Cl)c(Cl)c4F)ncnc3cc2OC)CC1 [Example 6, 1-(4-(4-(3,4-dichloro-2-fluorophenylamino)-7-methoxyquinazolin-6-yloxy)piperidin-1-yl)prop-2-en-1-one]

hygroscopic degree (DVS) [1, 6]: 1-3% | solubility [5]: < 0.001 mg/mL
SMILES: C=CC(=O)N1CCC(Oc2cc3c(Nc4ccc(Cl)c(Cl)c4F)ncnc3cc2OC)CC1 [Reference Example, 1-(4-(4-(3,4-dichloro-2-fluorophenylamino)-7-methoxyquinazolin-6-yloxy)piperidin-1-yl)prop-2-en-1-one]
